One assay has as its target T1, GABAA4 (α4β3δ) receptor (Homo sapiens, UniProt P28472+P48169).
T1 construct: expressed in transfected cells; host or cells: HEK293 (transient transfection, plasmids 1:1:1)
Put plainly: Patch-clamp electrophysiology, compound alone or with 10 nM GABA (Table 3). Particulars: for Emax: relative to peak current in GABA only. It counts as cell-based. The procedure: The present invention applies the two subunits of the recombinant GABAA receptor: α1β2γ2 and α4β3δ to evaluate the potency of the exemplary compounds in vitro by patch-clamp electrophysiology.
Extracellular fluid: 140 mM NaCl, 5 mM CsCl, 2 mM CaCl2·2H2O, 1 mM MgCl2·6H2O, 5 mM HEPES, 10 mM D-Glucose, pH=7.4 (NaOH).
Intracellular fluid: 130 mM CsCl, 0.1 mM CaCl2·H2O, 2 mM MgCl2·6H2O, 1.1 mM EGTA, 5 mM Na2-ATP, 10 mM HEPES, pH=7.2 (CsOH).
HEK293 cell line was cultured in DMEM containing 10% fetal bovine serum and 5% carbon dioxide at 37° C.
Cell passage: The old medium was removed, and the cells were washed once with PBS. Then 1 mL 0.25%-Trypsin-EDTA solution was added to digest cells. The culture dish was incubated at 37° C. in pre-warmed incubator for 0.5 minutes. As soon as cells were detached, about 5 mL 37° C. pre-warmed complete medium was added. Cell aggregates were dissociated by gentle pipetting. The cell suspension was transferred into a sterile centrifuge tube and then the cell suspension was be spun at approximately 1000 rpm for 5 minutes. The cells were amplified or maintained by seeding 2.5×10^5 cells in a 6 cm dish (final medium volume: 5 mL). For transfection, 8×10^3 cells were plated onto coverslips, and cultured in a 24-well plate (final medium volume: […]).
Transfection: Second day, the transfection of GABAA4 (α4, β3, δ plasmid ratio 1:1:1) was performed. The X-tremeGENE HP DAN Transfection Reagents kit were used. The ratio of the plasmid and transfection reagent was 1 μg: 2 μL. The amount of plasmid in the 24-well plate was 0.5 μg per well, and the transfection reagent was 1 μL. The following specific steps were taken for preparing the 12 wells: The 600 μL Opti-MEM was added to a sterile centrifuge tube along with 6 μg of plasmid and was allowed to mix well; Then, the 12 μL of transfection reagent was added, mixed well following 15 min incubation at room temperature. The transfection complex was then inoculated into the cell, 50 μL per well, and the transfection complex was lightly stirred and mixed.
This mixture was changed on the third day, and the patch-clamp was performed on the fourth day.
Glass pipette (BF 150-86-10, Sutter Instruments) was pulled using a micropipette puller (P97, Sutter Instruments). The glass pipette was manipulated using a micro-manipulator (MP285, Sutter Instruments) under the microscope (IX71, Olympus). After touching the cell, a slight suction was applied to achieve high seal resistance (GQ). Fast capacitance (in pF) compensation was made after achieving high seal, and the membrane was broken. Cell capacitance (in pF) compensation was made from whole-cell capacitance compensation after the whole cell mode was achieved. No leak subtraction was made.
The test and control solutions flowed into a recording chamber mounted on the stage of an inverted microscope via a gravity-fed solution delivery system. During the experiment, solutions were withdrawn from the recording chamber by vacuum aspiration. Each concentration was tested at multiple times. All tests were performed at room temperature.
Whole cell model recorded GABAA4 receptors current experimental protocol was indicated as follows: When sealing, cell was at a holding potential of −70 mV, with gap-free mode to record the peak current. The cell would be applied with 10 nM GABA to active current. After the test articles application for 30 s, each concentration of test articles was applied with 10 nM GABA followed by 2 minutes washout using extracellular solution. Finally, 10 μM GABA was used as a positive control. The data were collected by EPC-10 amplifier and stored in PatchMaster (HEKA) software.
The following criteria are used to determine whether the data is acceptable: • (1) Electrode resistance <5MΩ • (2) Seal resistance >1GΩ • (3) The start of access resistance <15 MΩ • (4) The end of access resistance <15 MΩ • (5) No obvious spontaneous current decay. • (6) No obvious current leakage when the membrane potential is-70 mv. […]
Background: In patch-clamp work, channel activity is measured electrically.

In assay [1] the test system is mice. In words: Light-dark shuttle box anti-anxiety test. The assay is classed as in vivo. Particulars: 5 consecutive days, 30 min after last administration, male mice. The source says: 57.3.1 light-dark shuttle box: The light-dark shuttle box is a standard and well characterized assay for anxiolytic effects of the exemplary compounds. Mice naturally avoid the light of the box because light makes mice evasive and stressful, but the exploration habit of mice also prompts mice to try to explore a bright box. Increased time on the light of the box by the exemplary compounds reflects an anxiolytic effect on mice. The experimental mice were randomly divided into 5 groups based on weight, including a negative control group, two different dosage groups (1 mg/kg and 3 mg/kg) of the tested compounds (KH004 or KH022), and every group had 10 male mice. Mice were administered with corresponding dosage for tested intervention for 5 consecutive days in advance, and conducting anxiolytic experiments after 30 min of the last administration. The retention time in the light box was selected as the main index for evaluating the anti-anxiety effect of KH004 and KH022.

The test system of assay [2] is mice. Put plainly: Elevated Plus Maze (EPM) testing. It counts as in vivo. Particulars: 5 consecutive days, 30 min after last administration, male mice. The source says:
57.3.2 Elevated Plus Maze (EPM) testing: EPM for exploratory behavior was used to assess general motor and anxiety-like behavior that was consisting of two open arms and two closed arms extending from a common central platform, thus forming anxiety-like symptoms. The anxiolytic compound would relieve the anxiety conflict status of animals in the test system. The experimental mice were randomly divided into 4 groups based on weight, including a negative control group, two different dosage groups (1 mg/kg and 3 mg/kg) of test compounds (KH004 or KH022), and every group had 10 male mice. Mice were administered with corresponding dosage for test intervention for 5 consecutive days in advance, and conducting anxiolytic experiments after 30 min of the last administration. The percentage of the retention time (latency) of mice open arms were used as the main index to evaluate the anxiolytic effect of KH004 and KH022, the results are shown in Table 5.

The mark [3] stands for this setting: with 10 nM GABA, read-out: EC50 (with 10 nM GABA).
Where [4] appears, read: with 10 nM GABA, read-out: Emax (with 10 nM GABA).
Setting [5] is: without GABA, read-out: Emax (without GABA).

Where two headings read alike, the source gives them in different places.

Broadly, the EC50 is the concentration that produces a half-maximal response. A word on the Emax: it is the size of the effect at its maximum, as opposed to the concentration needed.

T1 sequence (P48169 36-554): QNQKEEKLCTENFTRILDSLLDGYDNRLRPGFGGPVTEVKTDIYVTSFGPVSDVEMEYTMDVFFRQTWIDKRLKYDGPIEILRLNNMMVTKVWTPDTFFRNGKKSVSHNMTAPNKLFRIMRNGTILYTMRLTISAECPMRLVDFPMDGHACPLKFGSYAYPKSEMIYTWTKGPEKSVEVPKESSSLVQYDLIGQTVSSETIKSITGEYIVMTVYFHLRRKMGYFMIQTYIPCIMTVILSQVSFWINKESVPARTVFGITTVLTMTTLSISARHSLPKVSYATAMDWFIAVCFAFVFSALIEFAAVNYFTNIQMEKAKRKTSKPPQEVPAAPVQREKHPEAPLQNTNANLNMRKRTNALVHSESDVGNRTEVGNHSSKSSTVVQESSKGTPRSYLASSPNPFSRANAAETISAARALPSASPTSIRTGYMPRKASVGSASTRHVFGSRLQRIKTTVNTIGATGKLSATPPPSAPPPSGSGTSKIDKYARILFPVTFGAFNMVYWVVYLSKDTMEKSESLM
T1 sequence (P28472 26-473): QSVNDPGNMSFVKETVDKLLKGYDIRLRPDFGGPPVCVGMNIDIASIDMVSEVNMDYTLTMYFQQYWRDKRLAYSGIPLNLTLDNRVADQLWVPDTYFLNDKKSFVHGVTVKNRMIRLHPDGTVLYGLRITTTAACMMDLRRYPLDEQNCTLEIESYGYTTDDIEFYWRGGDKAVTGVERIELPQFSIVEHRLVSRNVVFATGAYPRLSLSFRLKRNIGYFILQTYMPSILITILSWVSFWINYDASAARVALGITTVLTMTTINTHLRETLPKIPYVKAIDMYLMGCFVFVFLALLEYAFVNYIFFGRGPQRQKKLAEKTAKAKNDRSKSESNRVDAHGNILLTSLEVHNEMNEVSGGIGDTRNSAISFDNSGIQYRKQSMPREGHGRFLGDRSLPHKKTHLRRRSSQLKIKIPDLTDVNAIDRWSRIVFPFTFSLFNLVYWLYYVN
T1 sequence (O14764 25-452 partner): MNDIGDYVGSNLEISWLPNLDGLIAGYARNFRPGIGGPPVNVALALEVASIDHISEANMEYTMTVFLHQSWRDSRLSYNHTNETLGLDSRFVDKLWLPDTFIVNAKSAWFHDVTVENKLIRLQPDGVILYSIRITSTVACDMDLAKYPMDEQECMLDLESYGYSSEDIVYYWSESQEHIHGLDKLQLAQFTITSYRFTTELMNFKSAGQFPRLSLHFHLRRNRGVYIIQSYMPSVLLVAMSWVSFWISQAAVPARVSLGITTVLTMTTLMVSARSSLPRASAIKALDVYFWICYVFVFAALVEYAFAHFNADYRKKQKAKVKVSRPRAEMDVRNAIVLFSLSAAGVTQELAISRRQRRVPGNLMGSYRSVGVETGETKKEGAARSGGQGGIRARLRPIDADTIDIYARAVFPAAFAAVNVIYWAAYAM

In the case of `C[C@@]1(O)CC[C@@]2(C)[C@@H](CC[C@@H]3[C@@H]2CC[C@]2(C)[C@@H](C(=O)Cn4ncnn4)CCC[C@@H]32)C1` [KH022], the EC50 at GABAA4 (α4β3δ) receptor (setting [3]) came to 386 nM. The Emax at GABAA4 (α4β3δ) receptor (setting [4]) was determined as 88.6%; on GABAA4 (α4β3δ) receptor (setting [5]), 45.8%. For the same compound, the “The retention time in the light box” value with mice [1] (1.0 mg/kg) is 50.00 ± 4.59 %; with mice [1] (3.0 mg/kg) it was 56.66 ± 7.96 %. Moreover, the “The retention time of mice open arms” value is on record as 31.40 ± 16.41 % in the assay with mice [2] (1 mg/kg) and 39.46 ± 11.82 % in the assay on mice [2] (3 mg/kg).
Turning to `C[C@]12CC[C@@H](O)C[C@@H]1CC[C@@H]1[C@@H]2CC[C@]2(C)[C@@H](C(=O)Cn3ncnn3)CCC[C@@H]12` [KH004], the EC50 was found to be 135 nM at GABAA4 (α4β3δ) receptor (setting [3]) and 172 nM at GABAA4 (α4β3δ) receptor (without GABA, read-out: EC50 (without GABA)). For the same compound, the Emax at GABAA4 (α4β3δ) receptor (setting [4]) was 172%; at GABAA4 (α4β3δ) receptor (setting [5]) it was 158%. For the same compound, the “The retention time in the light box” value with mice [1] (1.0 mg/kg) is recorded as 50.30 ± 6.89 %; in the assay with mice [1] (3.0 mg/kg) it was 53.91 ± 9.37 %. Moreover, the “The retention time of mice open arms” value turned out to be 27.21 ± 11.15 % in the assay with mice [2] (1 mg/kg) and 36.44 ± 13.28 % in the assay with mice [2] (3 mg/kg).
Consider `C[C@@]1(O)CC[C@H]2[C@H](CC[C@@H]3[C@@H]2CC[C@]2(C)[C@@H](C(=O)Cn4cc(C#N)cn4)CC[C@@H]32)C1` [The control, reference compound], for which, on GABAA4 (α4β3δ) receptor (EC50 (with 10 nM GABA), with 10 nM GABA), the EC50 was 219 nM. Also, the Emax on GABAA4 (α4β3δ) receptor (setting [4]) turned out to be 149%; on GABAA4 (α4β3δ) receptor (setting [5]) it was 114%.

(Values after patent US12415830B2, “Steroid compound, and use thereof and preparation method therefor” (Chengdu Kanghong Pharmaceutical Co Ltd, priority 2019, dated 2025).)
